From patent publication US20260184663A1, “INDENE COMPOUNDS, PHARMACEUTICAL COMPOSITIONS THEREOF, AND THEIR THERAPEUTIC APPLICATIONS” (NucMito Pharmaceuticals co. Ltd., priority 2022, published 2026)

Assays:
Assay type in all cases: cell-based
[1] = system: alpha-smooth muscle actin (α-SMA); experiment: Inhibition of TGF-β induced expression of alpha-smooth muscle actin (α-SMA) in CFSC cells (western blot); settings: compound at 10 μM, TGF-β (10 ng/mL), 24 hours, band intensity vs TGF-β only
Procedure, shortened: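 CFSC hepatic stellate cells in serum-free DMEM treated 24 h at 37 °C with compound at 10 μM plus TGF-β (10 ng/mL). α-SMA measured by Western blot with β-actin, ECL detection, densitometry. Percent inhibition is decrease in band intensity versus TGF-β-only cells.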

[2] = system: MDA-MB-231 (breast cancer); experiment: Antiproliferative activity (CCK-8 cell viability), MDA-MB-231; settings: Homo sapiens, 72 h, read-out: Antiproliferative activity in cancerous cells, MDA-MB-231 (inhibition of cell growth); for inhibition at 3.3 µM: Compound concentration: 3.3 μM; for inhibition at 10 µM: Compound concentration: 10 μM
Procedure, shortened: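 MDA-MB-231 breast cancer cells, grown in DMEM with 10% FBS, were plated in 96-well plates at 2,000-5,000 cells/well. Once attached, they were exposed to compound and incubated at 37° C. for 72 h. Viability was then measured with CCK-8 (10 μL per well, 4 h at 37° C.) by absorbance at 450 nm, relative to DMSO vehicle wells.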

HepG2 (liver cancer) = experiment: Antiproliferative activity (CCK-8 cell viability), HepG2; settings: Homo sapiens, 72 h; for inhibition at 3.3 µM: Compound concentration: 3.3 μM; for inhibition at 3.3 µM / inhibition at 10 µM: read-out: Antiproliferative activity in cancerous cells, HepG2 (inhibition of cell growth); for inhibition at 10 µM: Compound concentration: 10 μM
Procedure, shortened: (§1)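 Cells grown in DMEM (HepG2, SW480), MEM (HeLa) or F-12K (A549), each with 10% FBS, then exposed to compound at 3.3, 10 or 30 μM for 72 h at 37 °C. CCK-8 absorbance at 450 nm; viability expressed as percent of DMSO-treated cells, graded as growth inhibition bands.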

SW480 (colon cancer) = experiment: Antiproliferative activity (CCK-8 cell viability), SW480; settings: Homo sapiens, 72 h, read-out: Antiproliferative activity in cancerous cells, SW480 (inhibition of cell growth); for inhibition at 3.3 µM: Compound concentration: 3.3 μM; for inhibition at 10 µM: Compound concentration: 10 μM
Procedure, shortened: as §1

[3] = system: B16F10 (malignant melanoma); experiment: Antiproliferative activity (CCK-8 cell viability), B16F10; settings: Mus musculus, 72 h, read-out: Antiproliferative activity in cancerous cells, B16F10 (inhibition of cell growth); for inhibition at 3.3 µM: B16-F10, Compound concentration: 3.3 μM; for inhibition at 10 µM: B16-F10, Compound concentration: 10 μM
Procedure, shortened: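 B16F10 melanoma cells grown in DMEM with 10% FBS were plated in 96-well plates at 2,000-5,000 cells/well. After attachment they were exposed to compound in medium for 72 h at 37° C. CCK-8 solution (10 μL) was then added, and after 4 h at 37° C absorbance was read at 450 nm.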

[4] = system: A431 (epidermoid carcinoma); experiment: Antiproliferative activity (CCK-8 cell viability), A431; settings: Homo sapiens, 72 h, read-out: Antiproliferative activity in cancerous cells, A431 (inhibition of cell growth); for inhibition at 3.3 µM: A-431, Compound concentration: 3.3 μM; for inhibition at 10 µM: A-431, Compound concentration: 10 μM
Procedure, shortened: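 A431 epidermoid carcinoma cells grown in DMEM with 10% FBS were plated at 2,000-5,000 cells/well in 96-well plates. After attachment they were exposed to compound at 3.3 μM, 10 μM, or 30 μM for 72 h at 37° C. Viability was then assessed by CCK-8 against DMSO vehicle-treated wells.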

[5] = system: A549 (lung adenocarcinoma); experiment: Antiproliferative activity (CCK-8 cell viability), A549; settings: Homo sapiens, 72 h, read-out: Antiproliferative activity in cancerous cells, A549 (inhibition of cell growth); for inhibition at 3.3 µM: Compound concentration: 3.3 μM; for inhibition at 10 µM: Compound concentration: 10 μM
Procedure, shortened: as §1

HeLa (cervical cancer) = experiment: Antiproliferative activity (CCK-8 cell viability), HeLa; settings: Homo sapiens, 72 h, read-out: Antiproliferative activity in cancerous cells, HELA (inhibition of cell growth); for inhibition at 3.3 µM: Compound concentration: 3.3 μM; for inhibition at 10 µM: Compound concentration: 10 μM
Procedure, shortened: as §1

Compound | inhibition at 10 µM [1] [%] | inhibition at 3.3 µM [2] [%] | inhibition at 10 µM [2] [%] | inhibition at 3.3 µM (HepG2 (liver cancer)) [%] | inhibition at 10 µM (HepG2 (liver cancer)) [%] | inhibition at 30 µM (HepG2 (liver cancer); Compound concentration: 30 μM, read-out: Antiproliferative activity in cancerous cells, HepG2) [%] | inhibition at 3.3 µM (SW480 (colon cancer)) [%] | inhibition at 10 µM (SW480 (colon cancer)) [%] | inhibition at 3.3 µM [3] [%] | inhibition at 10 µM [3] [%] | inhibition at 3.3 µM [4] [%] | inhibition at 10 µM [4] [%] | inhibition at 3.3 µM [5] [%] | inhibition at 10 µM [5] [%] | inhibition at 3.3 µM (HeLa (cervical cancer)) [%] | inhibition at 10 µM (HeLa (cervical cancer)) [%]
COc1ccc2c(c1)/C(=C\c1ccc(OCc3ccccc3)cc1)C=C2CC(=O)O [A9, (Z)-2-(1-(4-(Benzyloxy)benzylidene)-6-methoxy-1H-inden-3-yl)acetic acid] | > 80 | < 30 | ≥ 50 | < 30 | < 30 | 30 to 50 | 30 to 50 | ≥ 50 | < 30 | < 30 | 30 to 50 | ≥ 50 | 30 to 50 | ≥ 50 | < 30 | 30 to 50
CCC1=C(CC(=O)O)c2cc(F)ccc2/C1=C\c1cccc(COc2ccccc2)c1 [A5, (Z)-2-(2-Ethyl-5-fluoro-1-(3-(phenoxymethyl)benzylidene)-1H-inden-3-yl)acetic acid] | > 80 | ≥ 50 | ≥ 50 | 30 to 50 | ≥ 50 | – | < 30 | ≥ 50 | 30 to 50 | ≥ 50 | < 30 | ≥ 50 | 30 to 50 | ≥ 50 | 30 to 50 | ≥ 50
COc1ccc2c(c1)/C(=C\c1cccc(COc3ccccc3)c1)C(C)=C2CC(=O)O [B8, (Z)-2-(6-Methoxy-2-methyl-1-(3-(phenoxymethyl)benzylidene)-1H-inden-3-yl)-acetic acid] | > 80 | < 30 | 30 to 50 | 30 to 50 | 30 to 50 | – | ≥ 50 | ≥ 50 | < 30 | ≥ 50 | 30 to 50 | ≥ 50 | ≥ 50 | ≥ 50 | 30 to 50 | ≥ 50
O=C(O)CC1=C(CC2CCCC2)/C(=C/c2cccc(Oc3ccccc3)c2)c2ccc(F)cc21 [C20, (Z)-2-(2-(Cyclopentylmethyl)-5-fluoro-1-(3-phenoxybenzylidene)-1H-inden-3-yl)acetic acid] | > 80 | 30 to 50 | ≥ 50 | < 30 | < 30 | – | ≥ 50 | ≥ 50 | ≥ 50 | ≥ 50 | ≥ 50 | ≥ 50 | 30 to 50 | ≥ 50 | 30 to 50 | ≥ 50
